Values belong to the compound of their own block, whether it stands above or below them. Activity calls are given as the source filed them.
Tests used:
[1] = Luminescence-based dose response cell-based high throughput screening assay for cytotoxic compounds using the IEC-6 intestinal epithelial cell line. [Related pubchem assays: 1858 (Summary AID.), 1825 (Counterscreen.), 1907 (Confirmation screen.)]; type: functional
[2] = target: Prothrombin (Homo sapiens, UniProt P00734); assay: Thrombin 1536 HTS Dose Response Confirmation. [Related pubchem assays: 1046 (Thrombin 1536 HTS; hits were confirmed in this assay)]; type: functional
[3] = target: Potassium voltage-gated channel subfamily KQT member 2 (Rattus norvegicus, UniProt O88943); assay: retigabine-insensitive KCNQ2 potentiators, concentration-response, dose response, cell-based, retigabine-insensitive compounds (AID 2654); type: functional
Potassium voltage-gated channel subfamily KQT member 2, sequence (O88943 whole entry): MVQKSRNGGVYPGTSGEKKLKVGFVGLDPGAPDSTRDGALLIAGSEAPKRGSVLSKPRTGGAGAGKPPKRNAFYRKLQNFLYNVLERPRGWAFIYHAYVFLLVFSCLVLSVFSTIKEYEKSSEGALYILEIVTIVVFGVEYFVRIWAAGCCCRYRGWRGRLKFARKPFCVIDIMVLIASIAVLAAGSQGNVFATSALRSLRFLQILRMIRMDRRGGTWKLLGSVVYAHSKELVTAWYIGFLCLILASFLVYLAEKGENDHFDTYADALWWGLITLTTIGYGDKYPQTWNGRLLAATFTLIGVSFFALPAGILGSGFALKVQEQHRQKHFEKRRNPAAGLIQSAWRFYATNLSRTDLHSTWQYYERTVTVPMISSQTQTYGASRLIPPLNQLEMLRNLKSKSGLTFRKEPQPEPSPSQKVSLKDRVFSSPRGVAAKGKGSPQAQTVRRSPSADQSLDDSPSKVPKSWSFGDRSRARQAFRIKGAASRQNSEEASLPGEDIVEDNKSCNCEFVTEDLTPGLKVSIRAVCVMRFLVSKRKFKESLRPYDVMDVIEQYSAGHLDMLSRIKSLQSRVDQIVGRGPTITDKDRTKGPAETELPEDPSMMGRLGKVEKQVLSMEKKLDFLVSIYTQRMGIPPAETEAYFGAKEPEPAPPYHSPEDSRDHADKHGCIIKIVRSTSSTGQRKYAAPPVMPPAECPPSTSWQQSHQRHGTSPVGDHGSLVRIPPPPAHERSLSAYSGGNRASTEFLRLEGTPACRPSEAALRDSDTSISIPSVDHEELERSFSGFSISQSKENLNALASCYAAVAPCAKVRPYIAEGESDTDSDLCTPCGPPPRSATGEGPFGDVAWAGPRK

[4] = target: T1, Hexokinase HKDC1 (Homo sapiens, UniProt Q2TB90); assay: HKDC1 hexokinase inhibitors, dose response, biochemical, W721R variant (AID 504729); type: functional
T1 sequence (Q2TB90 whole entry): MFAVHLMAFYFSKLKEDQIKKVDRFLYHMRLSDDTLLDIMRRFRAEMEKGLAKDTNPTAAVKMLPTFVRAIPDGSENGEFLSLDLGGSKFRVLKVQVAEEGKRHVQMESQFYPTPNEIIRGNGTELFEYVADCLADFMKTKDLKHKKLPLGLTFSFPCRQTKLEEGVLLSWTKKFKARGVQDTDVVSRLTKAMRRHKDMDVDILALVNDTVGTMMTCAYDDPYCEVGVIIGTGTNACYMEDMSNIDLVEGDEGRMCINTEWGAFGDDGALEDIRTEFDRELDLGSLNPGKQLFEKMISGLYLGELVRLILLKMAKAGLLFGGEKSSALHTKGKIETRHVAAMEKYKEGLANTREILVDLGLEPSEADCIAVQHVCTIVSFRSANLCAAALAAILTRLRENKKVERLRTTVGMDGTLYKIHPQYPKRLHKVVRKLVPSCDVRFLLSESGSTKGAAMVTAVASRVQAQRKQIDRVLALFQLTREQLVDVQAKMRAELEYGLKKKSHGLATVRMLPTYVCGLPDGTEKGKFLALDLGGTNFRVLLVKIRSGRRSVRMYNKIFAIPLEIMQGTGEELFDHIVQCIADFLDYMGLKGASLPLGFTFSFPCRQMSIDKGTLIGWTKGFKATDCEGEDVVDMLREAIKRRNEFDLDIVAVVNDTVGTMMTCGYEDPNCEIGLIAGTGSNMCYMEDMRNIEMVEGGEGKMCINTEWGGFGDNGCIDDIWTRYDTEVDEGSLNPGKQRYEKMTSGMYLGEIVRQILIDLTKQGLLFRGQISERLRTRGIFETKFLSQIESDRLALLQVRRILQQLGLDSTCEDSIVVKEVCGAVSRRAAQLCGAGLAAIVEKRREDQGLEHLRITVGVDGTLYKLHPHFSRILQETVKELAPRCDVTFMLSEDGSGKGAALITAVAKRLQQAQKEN

[5] = target: Trypsin (Sus scrofa, UniProt P00761); assay: porcine trypsin inhibitors, dose response, selectivity assay for Rce1 protease inhibitor project, biochemical, quenched peptide fluorescence, cherry-pick (AID 488789)
Trypsin, sequence (P00761 whole entry): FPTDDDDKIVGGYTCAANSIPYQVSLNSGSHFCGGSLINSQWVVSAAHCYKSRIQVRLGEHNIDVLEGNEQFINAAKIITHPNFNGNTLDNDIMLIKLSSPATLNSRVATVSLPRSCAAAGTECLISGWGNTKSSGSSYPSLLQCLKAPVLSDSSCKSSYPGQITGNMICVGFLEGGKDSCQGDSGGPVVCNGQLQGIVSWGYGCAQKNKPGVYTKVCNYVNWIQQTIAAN

[6] = cytotoxicity in HEK-293T cells, dose response, cytotoxicity control for BCR NF-kB inhibitor project, luminescence, B-cell screen hits (AID 489021); type: functional, cell-based;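 also: HEK-293T cells carrying an NF-kB luciferase reporter; cells exposed to compound for about 14 hours before viability readout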
[7] = target: T2, Mannose-6-phosphate isomerase (Homo sapiens, UniProt P34949); assay: human PMI inhibitors, high substrate, primary screen, biochemical, fluorescence intensity, high mannose 6-phosphate (AID 1220)
T2 sequence (P34949 whole entry): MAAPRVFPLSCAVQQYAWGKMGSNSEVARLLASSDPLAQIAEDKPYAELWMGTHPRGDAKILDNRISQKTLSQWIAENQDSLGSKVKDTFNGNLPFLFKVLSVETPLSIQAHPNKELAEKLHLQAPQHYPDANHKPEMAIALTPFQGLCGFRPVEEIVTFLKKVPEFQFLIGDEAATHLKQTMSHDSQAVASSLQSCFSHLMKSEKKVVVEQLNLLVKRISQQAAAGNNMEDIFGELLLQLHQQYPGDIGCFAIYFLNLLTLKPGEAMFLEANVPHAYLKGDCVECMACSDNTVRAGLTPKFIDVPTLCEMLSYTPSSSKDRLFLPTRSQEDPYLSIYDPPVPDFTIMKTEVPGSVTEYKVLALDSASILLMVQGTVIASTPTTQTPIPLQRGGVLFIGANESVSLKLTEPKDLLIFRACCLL

[8] = target: Eukaryotic translation initiation factor 4E (Mus musculus, UniProt P63073); assay: eIF4E–eIF4G protein interaction inhibitors, dose response, biochemical, TR-FRET (AID 855); type: functional;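 also: potency for disrupting eIF4E binding to eIF4GI seen as loss of FRET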
Eukaryotic translation initiation factor 4E, sequence (P63073 whole entry, the tested form may be a part): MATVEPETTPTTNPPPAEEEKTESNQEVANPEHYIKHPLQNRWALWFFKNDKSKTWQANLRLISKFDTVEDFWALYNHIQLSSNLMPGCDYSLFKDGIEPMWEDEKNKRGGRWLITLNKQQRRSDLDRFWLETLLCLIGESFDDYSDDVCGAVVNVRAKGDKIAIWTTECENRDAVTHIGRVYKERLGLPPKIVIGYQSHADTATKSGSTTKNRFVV

[9] = target: T3, Carboxy-terminal domain RNA polymerase II polypeptide A small phosphatase 1 (Homo sapiens, UniProt Q9GZU7); assay: inhibitors of CTDSP1, concentration-response testing, biochemical assay, absorbance-based, actives from ultra-high-throughput screening (AID 540297); type: functional
T3 sequence (Q9GZU7 whole entry): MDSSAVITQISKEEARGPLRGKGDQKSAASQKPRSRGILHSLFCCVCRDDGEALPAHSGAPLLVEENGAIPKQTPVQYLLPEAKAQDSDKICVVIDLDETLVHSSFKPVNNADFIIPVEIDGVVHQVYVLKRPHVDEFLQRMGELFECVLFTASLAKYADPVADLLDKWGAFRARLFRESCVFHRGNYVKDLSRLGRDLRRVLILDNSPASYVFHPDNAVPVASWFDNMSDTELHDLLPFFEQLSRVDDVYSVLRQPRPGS

[10] = test system: BJ; assay: cytotoxicity toward BJ-TERT fibroblasts, dose response, cell-based, RAS-independent, luminescence (AID 1933); type: functional; settings: Homo sapiens
[11] = test system: BJ; assay: cells; type: functional, cell-based; settings: Homo sapiens
[12] = inhibitors of intracellular T. cruzi replication, confirmation, NIH3T3 host cells, beta-gal luminescence (AID 2044); type: functional, cell-based;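 also: intracellular parasites grown in NIH/3T3 mouse fibroblasts as host cells; luminescent beta-galactosidase reporter signal from transgenic T. cruzi replicating inside host cells; inhibitors lower the luminescence signal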
[13] = cytotoxicity toward NIH3T3 fibroblasts, dose response, counter-screen, cell-based, ATP luminescence, mouse fibroblasts (AID 2010); type: functional;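 also: cells exposed to compound for about 90 hours before reading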
[14] = test system: BJ; assay: cytotoxicity toward BJ-TERT-LT-ST fibroblasts, dose response, cell-based, RAS-independent, luminescence (AID 1935); type: functional; settings: Homo sapiens;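 also: BJ fibroblasts immortalized with TERT plus LT and ST oncogenes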
[15] = cytotoxicity toward DRD oncogenic fibroblasts, dose response, cell-based, non-viral oncogenic, luminescence (AID 1934); type: functional; settings: Homo sapiens
[16] = cytotoxicity in HEK-293T cells, dose response, cytotoxicity control for TCR NF-kB inhibitor project, luminescence, T-cell screen hits (AID 489026); type: functional, cell-based;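 also: cells exposed to compound about 14 hours before the viability readout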
[17] = cells
[18] = target: Cytochrome P450 2D6 (Homo sapiens, UniProt P10635);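 also: CYP2D6 member of a cytochrome P450 panel assay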
Cytochrome P450 2D6, sequence (P10635 whole entry): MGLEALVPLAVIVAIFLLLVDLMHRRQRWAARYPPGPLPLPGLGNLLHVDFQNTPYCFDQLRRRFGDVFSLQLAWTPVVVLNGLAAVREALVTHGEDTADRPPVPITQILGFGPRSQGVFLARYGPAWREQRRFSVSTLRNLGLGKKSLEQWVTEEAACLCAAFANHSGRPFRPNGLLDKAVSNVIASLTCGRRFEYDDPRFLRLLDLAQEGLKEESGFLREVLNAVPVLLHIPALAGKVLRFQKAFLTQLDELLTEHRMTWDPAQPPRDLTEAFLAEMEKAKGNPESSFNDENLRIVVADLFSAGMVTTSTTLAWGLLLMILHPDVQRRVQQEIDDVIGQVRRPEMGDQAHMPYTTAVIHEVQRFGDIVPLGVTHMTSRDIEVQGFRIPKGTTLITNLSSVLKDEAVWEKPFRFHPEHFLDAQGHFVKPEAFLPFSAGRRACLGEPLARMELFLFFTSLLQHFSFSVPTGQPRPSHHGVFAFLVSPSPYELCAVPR

[19] = target: T4, Heat shock factor protein 1 (Mus musculus, UniProt P38532); assay: inhibition of MG132-induced HSE-luciferase signal, confirmation, cell-based, NIH3T3, luminescence, dose retest (AID 2382); type: functional;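 also: NIH3T3 fibroblasts with HSF1-driven luciferase reporter stressed by proteasome inhibitor MG132; luminescence from HSF1-driven luciferase expression after 8 hours of MG132 stress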
T4 sequence (P38532 whole entry): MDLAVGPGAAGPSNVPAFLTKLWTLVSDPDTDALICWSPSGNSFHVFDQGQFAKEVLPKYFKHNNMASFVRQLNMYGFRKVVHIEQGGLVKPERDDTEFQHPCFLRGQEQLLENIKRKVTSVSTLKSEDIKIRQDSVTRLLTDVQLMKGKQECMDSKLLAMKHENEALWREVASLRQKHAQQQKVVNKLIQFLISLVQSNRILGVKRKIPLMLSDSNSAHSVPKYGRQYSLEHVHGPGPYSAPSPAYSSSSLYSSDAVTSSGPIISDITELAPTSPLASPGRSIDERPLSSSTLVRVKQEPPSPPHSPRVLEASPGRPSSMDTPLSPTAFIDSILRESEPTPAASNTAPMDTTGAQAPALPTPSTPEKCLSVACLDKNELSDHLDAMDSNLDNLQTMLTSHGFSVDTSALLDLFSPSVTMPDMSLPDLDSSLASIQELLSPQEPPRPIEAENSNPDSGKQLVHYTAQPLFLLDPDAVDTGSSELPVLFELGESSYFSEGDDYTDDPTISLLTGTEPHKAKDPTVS

[20] = inhibitors of PGC1a acetylation in cells, dose response, cell-based, cherry-picked samples (AID 720514); type: functional;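 also: potency may reflect raised or lowered acetylation signal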
[21] = target: T5, Short transient receptor potential channel 4 (Mus musculus, UniProt Q9QUQ5); assay: mouse TRPC4 channel inhibitors, dose response, cell-based, HEK293 TRPC4/mu-opioid, Fluo-4 calcium (AID 434942); type: functional;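 also: potency of inhibitors blocking the TRPC4 calcium response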
T5 sequence (Q9QUQ5 whole entry): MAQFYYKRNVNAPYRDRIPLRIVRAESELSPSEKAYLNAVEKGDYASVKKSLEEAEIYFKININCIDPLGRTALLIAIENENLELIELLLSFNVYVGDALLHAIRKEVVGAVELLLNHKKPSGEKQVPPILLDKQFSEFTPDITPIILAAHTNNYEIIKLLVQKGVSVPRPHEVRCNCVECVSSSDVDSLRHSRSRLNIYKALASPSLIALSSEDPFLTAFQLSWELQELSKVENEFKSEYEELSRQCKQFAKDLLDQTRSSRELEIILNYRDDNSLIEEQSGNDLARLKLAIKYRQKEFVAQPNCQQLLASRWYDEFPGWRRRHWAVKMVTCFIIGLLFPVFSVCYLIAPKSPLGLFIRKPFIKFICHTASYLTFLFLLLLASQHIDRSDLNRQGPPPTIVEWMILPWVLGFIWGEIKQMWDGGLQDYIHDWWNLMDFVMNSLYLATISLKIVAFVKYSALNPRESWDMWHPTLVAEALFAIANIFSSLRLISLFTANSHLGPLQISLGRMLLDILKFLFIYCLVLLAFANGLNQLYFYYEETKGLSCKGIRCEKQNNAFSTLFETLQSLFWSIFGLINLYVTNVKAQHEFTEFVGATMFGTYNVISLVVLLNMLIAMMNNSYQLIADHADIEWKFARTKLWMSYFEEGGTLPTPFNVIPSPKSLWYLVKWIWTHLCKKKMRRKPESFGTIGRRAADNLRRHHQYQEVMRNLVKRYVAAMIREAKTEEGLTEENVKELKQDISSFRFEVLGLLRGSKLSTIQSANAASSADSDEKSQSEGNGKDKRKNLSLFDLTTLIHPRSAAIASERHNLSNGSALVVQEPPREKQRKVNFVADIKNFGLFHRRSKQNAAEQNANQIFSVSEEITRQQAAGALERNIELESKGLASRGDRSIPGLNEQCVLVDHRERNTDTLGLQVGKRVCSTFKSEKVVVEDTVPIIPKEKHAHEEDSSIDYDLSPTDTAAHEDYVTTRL

[22] = target: T5, Short transient receptor potential channel 4; assay: mouse TRPC4 channel activators, dose response, cell-based, HEK293 TRPC4/mu-opioid, Fluo-4 calcium (AID 434937); type: functional
[23] = HeLa 2N DNA content increase, dose response, cell-based, IC50 (AID 1117349); type: functional
[24] = HeLa 4N DNA content increase, dose response, cell-based, IC50 (AID 1117351); type: functional

SMILES: CN1CCC(NCCC(c2ccc(F)cc2)c2ccc(Cl)cc2)CC1 (stereo unspecified)
- IC50 [1]: 5.34 µM (active)

- IC50 [2]: > 50 µM (not active)
SMILES: COc1cccc(-c2nnc(SCC(=O)Nc3ccc4c(c3)OCCO4)n2Cc2ccco2)c1

- EC50 [3]: 4.21 µM (active)
SMILES: O=C(Nc1cccnc1)Nc1ccc(F)c(Cl)c1

- IC50 [4]: 20.4 µM (inactive)
SMILES: COc1ccc(OC)c2nc(O)c(CCNC(=O)c3cc4ccccc4o3)cc12

- IC50 [2]: 2.17 µM (active)
SMILES: CC(=O)c1sc2ccccc2c1OC(=O)c1ccco1

- AC50 [5]: 6.54 µM (active)
SMILES: O=C(NC1CC1)c1ccc2c(c1)N(Cc1ccccc1)CCS2

- IC50 [2]: > 50 µM (not active)
SMILES: O=C(COc1ccc(S(=O)(=O)Nc2ccccc2)cc1)N1CCOCC1

SMILES: O=C(NNC(=O)C12CC3CC(CC(C3)C1)C2)c1cccc(O)c1
- IC50 [6]: > 80 µM (inactive)

- IC50 [7]: > 50 µM (not active)
SMILES: Cc1cccc(NCc2ccc(O)c3ncccc23)c1

- IC50 [8]: 50 µM (inactive)
- IC50 [9]: 12.5 µM (active)
SMILES: CN(Cc1ccccc1)C(=O)COC(=O)/C=C/c1ccco1

SMILES: COc1ccc(C(=O)Nc2nnc(SCC(=O)Nc3ccc(NC(C)=O)cc3)s2)c(OC)c1
- IC50 [6]: > 80 µM (inactive)

SMILES: CC(=O)O[C@@]12CO[C@@H]1C[C@@H](O)[C@@]1(C)C(=O)[C@H](O)C3=C(C)[C@@H](OC(=O)[C@H](O)[C@@H](NC(=O)c4ccccc4)c4ccccc4)C[C@@](O)([C@@H](OC(=O)c4ccccc4)C12)C3(C)C (stereo partly specified)
- EC50 [10]: 0.645 µM (active)
- EC50 [11]: 44.8 µM (inconclusive)
- EC50 [12]: < 0.1 µM (active)
- IC50 [1]: 0.157 µM (active)
- EC50 [13]: 5.97 µM (active)
- EC50 [14]: 0.434 µM (inconclusive)
- EC50 [15]: 0.567 µM (active)
- IC50 [16]: > 80 µM (inactive)
- EC50 [17]: 0.022 µM (active)

- IC50 [8]: > 64 µM (inactive)
- AC50 [18]: 15.8 µM (inconclusive)
SMILES: CC(C)(C)c1[nH]nc2c1C(c1ccc(OC(=O)c3ccco3)cc1)C(C#N)=C(N)O2 (stereo unspecified)

- IC50 [8]: > 64 µM (inactive)
SMILES: CCSc1ccc2nnc(-c3cccc(F)c3)n2n1

SMILES: Cc1ccc(/C=C2\SC(=S)N(CCCC(=O)Nc3cccnc3)C2=O)cc1
- EC50 [19]: 0.255 µM (active)
- IC50 [6]: > 80 µM (inactive)

- EC50 [3]: 5.76 µM (active)
SMILES: O=C(Nc1ccc(F)nc1)Nc1cccc(F)c1

- IC50 [4]: 2.56 µM (active)
SMILES: COC1=CC(=O)C(OC)=C(OC)C1=O

SMILES: N#Cc1cccc(-c2ccc([C@@H]3[C@@H]4CN(Cc5ccccc5F)C[C@H]3N4)cc2)c1
- AC50 [20]: 8.09 µM (active)

SMILES: Cc1ccccc1Nc1nc(NCc2ccco2)c2ccccc2n1
- EC50 [12]: < 0.1 µM (active)
- EC50 [13]: > 60 µM (not active)
- EC50 [21]: 1.06 µM (active)
- EC50 [22]: 5.96 µM (active)
- EC50 [17]: 0.023 µM (active)

SMILES: CCCCCCCCCCCCCCCCNc1ccc(C(=O)O)cc1 [CETABEN]
- IC50 [23]: > 10 µM (inactive)
- IC50 [24]: > 10 µM (inactive)
